Experimental data as given in patent publication US8435790B2, “Methods of modulating lipid concentrations in eukaryotic cells” (The Regents of the University of California, priority 2008, dated 2013).

Legend:
[1] = test system: Drosophila S2 cells; assay: Cellular triacylglycerol (TG) content of S2 cells; format: cell-based; conditions: S2 cells incubated with 1 mM oleate for 24 hours; means of three experiments, P<0.05
Protocol: FIG. 1A is series of micrographs of S2 cells incubated for 24 hours without (upper) or with (lower) 1 mM oleate. Staining with BODIPY, phase-contrast image, and overlay are shown. FIG. 1B is a graph showing that oleate-loaded cells have an increased triacylglycerol (TG) content. Cells were incubated as in FIG. 1a and their TG (triglyceride) contents were measured. Results are means and s.d. for three experiments; P<0.05. FIG. 1C is a series of micrographs showing that lipid droplet formation occurs in steps. Single cells were followed by four-dimensional confocal time-lapse photography. Representative maximum projections of three-dimensional stacks at the indicated times are shown. Scale bar is 3 μm.
Lipid measurements. Cells were cultured in 6-well plates (16 μg dsRNAs each well) for 3 days, and then 1 mM oleate was added for 24 hours. Cells were lysed in 50 mM Tris-HCl (pH 7.4), 0.25 M sucrose, and samples (250 μg protein) were assayed for lipids. PC was quantified with a colorimetric method^29. TG content was measured from extracted lipids by TLC^30.

[2] = test system: Drosophila S2 cells; assay: Lipid-droplet formation in S2 cells, BODIPY staining and microscopy; format: cell-based; conditions: S2 cells incubated with 1 mM oleate for 24 hours
Protocol: Lipid-droplet formation in Drosophila Schneider 2 (S2) cells is an excellent system for functional genomic studies with efficient gene inactivation by RNAi^6. In the exemplified methods below, lipid-droplet formation was induced by incubation with 1 mM oleate for 24 hours. […] BODIPY-stained fluorescent signals corresponded to lipid droplets with a red fluorescent protein mCherry^7 fused with LSD1, which localizes exclusively to the surface of lipid droplets^3 (not shown).
Cell culture. Drosophila S2 cells were cultured in Schneider's Drosophila medium (Invitrogen) supplemented with 10% fetal bovine serum and antibiotics (100 unit/ml penicillin and 100 μg/ml streptomycin) at 25° C. as described^32. RNAi treatment of S2 cells were performed as previously described^10. A segment of pBluescript backbone was used as the template for control RNAi (referred as control RNAi thereafter). Transfection of S2 cells was performed using Cellfectin reagent (Invitrogen). Images of live cells were taken using LSM 510 confocal microscope (Carl Zeiss MicroImaging) with a 63× oil immersion lens.
Image analyses. S2 cells (2.7×10^6 cells/ml) were treated with 1 μg dsRNA in 96-well plates for 3 days, and 1 mM oleic acid was added for 24 h. Cells were fixed in 4% paraformaldehyde/PBS (1 h) and stained with DAPI and BODIPY493/503 in PBS (1 h). […]

CCCCCCCC/C=C\CCCCCCCC(=O)O [oleate, Oleic acid]
cellular triacylglycerol (TG) content [1]: increased sevenfold
lipid droplet size, number, and overall volume (BODIPY staining) [2]: increased
